Here are results for two compounds from patent publication US6159988A, “Arylcycloalkyl derivatives, their production and their use” (Hoeschst Aktiengesellschaft, priority 1992, dated 2000).

Structures can show the parent of a compound that is named as a salt.

Series [1] concerns isolated guinea pig ileum precontracted with leukotrienes. The series is described as follows: Relaxation of leukotriene induced contraction of isolated guinea pig ileum. Format: cell-based. The settings on record: Cavia porcellus. Here is the method:
Guinea pigs of either sex weighing 300-350 g were sensitized with a suspension of aluminum hydroxide gel and egg albumin. After 21 days, each animal was exposed to 0.5% egg albumin aerosol in an air tight perspex chamber and only those animals which developed allergic bronchoconstriction were selected for further experiment.
The animals were tested for one week after antigenic exposure and then sacrificed by head blow and cutting carotid arteries. The lung was quickly removed and placed in aerated Tyrode solution kept at 37° C. The lung was cut into uniform strips and each strip was placed in an organ bath containing isolated guinea pig ileum connected to potentiometric recorder through isotonic transducer in the presence of Tyrode solution kept at 37° C. After a stabilizing period of 30 minutes, the reactivity of ileum to histamine was confirmed by challenging it with 100 ng-200 ng/ml of histamine. The perfusion fluid was then replaced by Tyrode solution containing Atropine (10^-7 M), Mepyramine maleate (10^-7 M) and methylsergide (10^-7 M). Three minutes later, lung strip was challenged by egg albumin (25 μg/ml) and release of leukotrienes was monitored in terms of slow contraction of ileum. The ileum was allowed to contract for 10-15 minutes when a plateau was achieved. The test compound (compound 4 of Table 1) was then added to observe the relaxation.
(§1) The specificity of leukotriene antagonism was determined by inducing contraction of guinea pig ileum with agonists like histamine, acetylcholine and KC1. Compounds having specific effect against lipoxygenase products induced contraction normally would not show any inhibition of histamine, acetylcholine and KC1 induced contraction.

Series [2] concerns histamine induced contraction of guinea pig ileum. The series is described as follows: Histamine induced contraction of guinea pig ileum (specificity). Format: cell-based. The settings on record: up to 7.11×10^-5 M. Here is the method:
as §1

Series [3] relates to KC1 induced contraction of guinea pig ileum. The series is described as follows: KCl induced contraction of guinea pig ileum (specificity). Format: cell-based. Particulars: up to 7.11×10^-5 M. Here is the method:
as §1

For series [4], the system named is Cotton Pellet Granuloma in Rats. The series is described as follows: Inhibition of carrageenin cotton pellet granuloma in rats. The class given is in vivo, rat (Wistar). Particulars: p.o. × 5. Here is the method: The implantation of carrageenin impregnated cotton pellets results in production of large, well-defined granuloma which are easily dissected. The potency of the compounds are assessed by measuring the reduction in granuloma tissue formation.
Cotton wool pellets weighing 40 mg were used for sterilization.
Pellets were dried overnight under a lamp. The pellets in the weight range of 42-44 mg were selected.
Rats (in groups of 6, male or female, Charles River, Wistar, weighing 140-150 g) were anaesthetized with ether. The back was shaved and cleaned; swabbed with alcohol and one centimeter incision was made in the lower midback. A small channel was made bilaterally using a blunt forceps and one cotton pellet placed in each channel. Air from the incision was removed and the wound was stitched. […] Three hours after the administration of the last dose on day 7, animals were sacrificed. The pellets were removed by cutting the skin along the dorsal midline and peeling the skin away from the bodywall in both lateral directions. The pellets were weighed and then placed in drying oven at 140° C. overnight. The dry weights were then recorded and the amount of granuloma was assessed by subtracting the original pellet weight from wet weights and dry weights. The data was evaluated using the difference of left and right weights (cf. Table 4).

In series [5] the test system is microanaphylactic shock of guinea pigs. The series is described as follows: Inhibition of micro-anaphylactic shock of guinea pigs (egg albumin aerosol). Format: in vivo, guinea pig. Particulars: 20 mg/kg^-1, i.p. + pretreatment with indomethacin, 10 mg/kg.
Description: Guinea pigs of either sex weighing between 300-350 g were sensitized with egg albumin absorbed over Al(OH)3 gel. After 21 days of sensitization, each animal was placed in an air tight perspex chamber and exposed to 0.5% egg albumin aerosol through EEL atomizer. EEL atomizer was operated by connecting it to pressurized air through a water trap and dial type sphygmomanometer at the constant air pressure of 180 mm Hg. The time of onset of asthma in seconds and recovery period in minutes was noted.
Each animal was exposed to egg albumin aerosol at an interval of 15 days to maintain the consistency of the reactivity of animals to the antigen. After 3 such control exposures, animals were subjected to drug treatment. On the day of the experiment one group of Guinea pigs consisting of 10 animals was kept as control exposing them only to 0.5% egg albumin aerosol. […] Fifteen mins. after the administration of the test compound the animals were exposed to 0.5% egg albumin aerosol.
For another series, the system named is IL-1 alpha. The series is described as follows: Inhibition of LPS stimulated IL-1 alpha release from human mononuclear cells. The class given is cell-based. The settings on record: 18 hours, 37° C., read-out: Approx. IC50 (LPS stimulated IL-1 alpha). The procedure:
(§2) 10 ml of human blood were carefully drawn from the antecubital vein using a syringe containing 1 ml of a solution of 3.8% sodium citrate. After dilution with 10 ml PM 16 (Serva, Heidelberg, FRG) and underlayering with 15 ml Lymphoprep® (Molter GmbH), the sample was centrifuged at 400×g for 40 min at 20° C. The mononuclear cells forming a white ring between lymphoprep and plasma were carefully aspirated by a syringe, diluted 1:1 with PM 16 and centrifuged again at 400×g for 10 min. […] was washed with 10 ml RPMI 1640 (Gibco, Berlin, FRG), containing additionally 300 mg/l L-glutamine, 25 mmol/l […] HEPES, 100 μg/ml streptomycin and 100 μg/ml penicillin. Finally, using a Coulter counter IT, the cell suspension was adjusted to 5×10^6 cells/ml. The cells consist of approx. 90% lymphocytes and 10% monocytes.
10 μl DMSO/water (1:10, v/v), containing the test compound, was added to 480 μl of a suspension, containing 5×10^6 mononuclear cells. The synthesis of IL-1 was stimulated by the addition of 10 μl DSMO/water (1:10, v/v), containing 0,5 μg LPS (Salmonella abortus equi, Sigma). After incubation at 37° C. for 18 hours, the samples were cooled to 0° C. and centrifuged for 1 min. in a table centrifuge. […]

In the next series the test system is IL-1. The series is described as follows: IL-1 release inhibition (Table 2). Particulars: Homo sapiens; 5 μM; read-out: IL-1 Rel. Inhib. Format: cell-based, human. The procedure:
as §2
10 μl DMSO/water (1:10, v/v), containing the test compound, was added to 480 μl of a suspension, containing 5×10^6 mononuclear cells. The synthesis of IL-1 was stimulated by the addition of 10 μl DSMO/water (1:10, v/v), containing 0,5 μg LPS (Salmonella abortus equi, Sigma). After incubation at 37° C. for 18 hours, the samples were cooled to 0° C. and centrifuged for 1 min. in a table centrifuge. 25 μl aliquots of the supernatant were assayed for IL-1 alpha activity using a commercially available 125-J-IL-1-alpha radioimmunoassay Kit (Amersham/UK), and for IL-1 beta in a similar way using the specific test kit. Control experiments were performed as described without test compound, or with cycloheximide as a test compound.

For series [6], the system named is adjuvant arthritis in rats. The series is described as follows: Adjuvant-induced arthritis in rats. Particulars: 3, 10, and 30 mg/kg orally once a day, 12 days. The class given is in vivo, rat (female Wistar).
Series [7] deals with experimental allergic encephalomyelitis (EAE) in guinea pigs. The series is described as follows: Experimental allergic encephalomyelitis (EAE) in guinea pigs. The class given is in vivo, guinea pig. The settings on record: 3 mg/kg orally once daily for 10 days. The text has this: This method permits the evaluation of the potential of the test compound in preventing the development of an autoimmune disorder leading to demyelination in the guinea pigs which can be equated to multiple sclerosis disease in humans. EAE is a reproducible chronic inflammatory autoimmune disease of the central nervous system in which an animal is immunized with either a homologous or heterologous extract of the whole brain and spinal cord, which contains the basic myelin protein together with Freund's Complete Adjuvant (FCA). A pathological condition would set in during ten to twenty days following immunization, which is characterized by weight loss, abnormal gait, mild to severe ataxia, paraparesis and moribund state leading to death. The potential of the test compounds to prevent this autoimmune condition was evaluated by observing the severity of the disease and mortality in comparison with untreated and hydrocortisone (standard drug) treated animals.
Guinea pigs (200-300 g) were randomly distributed into groups of 10 each after receiving 0.075 ml of it brain and spinal cord extract in FCA intradermally on the back and 0.050 ml intrapedally in one hind paw. Compound 9 of Table 2 was administered orally at 3 mg/kg once daily for 10 days. The standard compound was administered 100 mg/kg p.o. once daily for 10 days. The weights of the animals were noted every day. Eight days after the induction of the disease, the animals were rated regularly for the severity of the disease and mortality was monitored.

The nature of series [8]: Oral bioavailability in the rat. The settings on record: 10 mg/kg oral (vs 1 mg/kg intravenous), plasma. The class given is in vivo. Here is the method:
(§3) Since the test compound produced significant activity in the adjuvant arthritic rats and experimental allergic encephalomyelitic guinea pigs when administered orally, the extent of oral bioavailability of this compound was estimated in rats and dogs. Compound 9 of Table 2 was administered intravenously (1 mg/kg) to conscious rats and dogs and blood samples were collected at various time points after administration. Similarly, the test compound was also administered orally (10 mg/kg) to a different set of rats and dogs and blood samples were collected at various time points. The blood samples were extracted and were analyzed by HPLC to obtain the concentration of compound 9 in the plasma. The plasma levels obtained after intravenous and oral administration were plotted against time, areas under the curves were calculated and percent bioavailability were estimated.

A short description of series [9]: Oral bioavailability in the dog. The class given is in vivo. The settings on record: 10 mg/kg oral (vs 1 mg/kg intravenous), plasma. The procedure: as §3

What is called IC50 is the midpoint of a concentration-inhibition curve. Consider `COc1cc(OC)c([C@@H]2CCCC[C@H]2O)c(O)c1C(=O)/C=C/c1ccc(Cl)cc1` (relative stereo) [Compound 4 of Table 1, trans-(±)-2-[4,6-Dimethoxy-2-hydroxy-3-(3-(4-chlorophenyl)prop-2-(E)-enoyl)]phenylcyclohexanol], for which the inhibition at 1.2 µM in series [1] (Conc. 1.2 × 10^-6 M) is 36.8%. Besides, the inhibition at 1.68 µM in series [1] (Conc. 1.68 × 10^-6 M) worked out at 50.5%. The compound further yielded an inhibition at 2.4 µM in series [1] (Conc. 2.4 × 10^-6 M) of 62.4%. Further, the inhibition at 7.2 µM in series [1] (Conc. 7.2 × 10^-6 M) turned out to be 68%. Further, the IC50 in series [1] (relaxation of leukotriene precontracted ileum, read-out: App. IC50) was 1680 nM; in the series with IL-1 alpha it was 200 to 300 nM. In series [2], the “Effect on histamine induced contraction” value is “No effect”. Also, the “Effect on KC1 induced contraction” value in [3] was “No effect”. The “% Inhibition of granuloma, Dry wt.” value in series [4] (10 mg/kg) is listed as 35.6%; in series [4] (20 mg/kg), 89.0%; in series [4] (30 mg/kg), 82.8%. Further, the “% Inhibition of granuloma, Wet wt.” value in series [4] (10 mg/kg) is 21%; in series [4] (20 mg/kg), 54%; in series [4] (30 mg/kg), 64%. Further, in series [5] (control group 37 + 3.4), the Recovery period was determined as 77.6 min. The Onset Time in series [5] (control group 75 + 8.7) is 149 s.
A word on the bioavailability: it is the share of a dose that reaches the circulation, judged against a reference dose that is usually intravenous. Read a low bioavailability as little systemic uptake. For `COc1cc(OC)c([C@@H]2CCCC[C@H]2OC(=O)[C@H](C)N)c(O)c1C(=O)/C=C/c1cccc(Br)c1` [Compound 9 of Table 2, trans-(-)-2-[4,6-dimethoxy-2-hydroxy-3-(3-(3-bromophenyl)prop-2-(E)-enoyl)phenyl]cyclohexyl-2-(S)-amino propanoate hydrochloride], the inhibition at 5 µM in the series on IL-1 came out at 55%. Also, the “reduction in the uninjected paw volumes” value in series [6] is “significant and dose dependent reduction”. Also, in [7], the “reduction in the mortality rate” value came out at 45%. Further, the “clinical symptoms (clinical grading)” value in [7] (compared to untreated group) was “significantly reduced”. Besides, the bioavailability in [8] worked out at 46%; in series [9], 73%.
